{"source": "patent US8106055B2", "about": "“Substituted amide compounds” (Gruenenthal GmbH, priority 2007, dated 2012)"}
{"target": "T1, bradykinin 1 receptor (B1R) of the rat (Rattus norvegicus, UniProt P97583)", "T1 construct": "expressed in transfected cells; host or cells: CHO K1 cells", "T1 sequence (P97583 1-337)": "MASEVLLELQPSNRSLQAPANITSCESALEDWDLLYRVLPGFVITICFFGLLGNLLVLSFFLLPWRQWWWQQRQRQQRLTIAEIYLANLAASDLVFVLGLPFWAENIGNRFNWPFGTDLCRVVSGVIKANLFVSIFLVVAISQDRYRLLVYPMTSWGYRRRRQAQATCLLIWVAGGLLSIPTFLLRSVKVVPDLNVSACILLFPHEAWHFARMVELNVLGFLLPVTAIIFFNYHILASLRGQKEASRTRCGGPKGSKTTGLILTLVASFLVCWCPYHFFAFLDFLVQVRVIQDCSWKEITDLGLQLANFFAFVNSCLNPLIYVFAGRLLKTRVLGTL", "test": "Functional investigation on the rat bradykinin 1 receptor (B1R), Ca2+ FLIPR assay in CHO K1 rB1R cells", "type": "cell-based", "conditions": "CHO-K1, B1R antagonism rat; test substance 10 μM; Ca2+ FLIPR, CHO K1 rB1R cells; read-out: B1R Ant. r [10 μM] % Inhibition", "summary_of_the_method": "(§1)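 Fluo-4 Ca2+ readout, peak fluorescence. Stable CHO K1 transfectants; compound pre-incubated 10-20 min, then EC80 agonist—Lys-Des-Arg9-BK for hB1R, Des-Arg9-BK for rB1R. % inhibition vs maximal inhibition; IC50 from multiple concentrations, duplicate/triplicate, ≥2 independent runs.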", "units": {"inhibition at 10 µM": "%"}}
{"molecule": "CN(C)C(c1ccccc1)C1CCC(CNC(=O)COC2CCN(S(=O)(=O)c3ccc(Cl)cc3)C2)CC1", "note": "(centres unmarked) [Example 81, 2-(1-(4-chlorophenylsulfonyl)pyrrolidin-3-yloxy)-N-((4-((dimethylamino)(phenyl)methyl)cyclohexyl)methyl)acetamide]", "inhibition at 10 µM": 5}
{"molecule": "COc1ccc(S(=O)(=O)N2CCCCC2CCOCC(=O)NCC2CCC(C(c3ccccc3)N(C)C)CC2)cc1", "note": "(centres unmarked) [Example 89, N-((4-((dimethylamino)(phenyl)methyl)cyclohexyl)methyl)-2-(2-(1-(4-methoxyphenylsulfonyl)piperidin-2-yl)ethoxy)acetamide]", "inhibition at 10 µM": 50}
{"molecule": "Cc1cc(C)c(S(=O)(=O)N(C)CCOCC(=O)NCC2CCC(C(c3cccs3)N(C)C)CC2)c(C)c1", "note": "(centres unmarked) [Example 57, N-((4-((dimethylamino)(thiophen-2-yl)methyl)cyclohexyl)methyl)-2-(2-(N,2,4,6-tetramethylphenylsulfonamido)ethoxy)acetamide]", "inhibition at 10 µM": 35}
{"molecule": "CN(C)C(c1cccc(F)c1)C1CCC(CNC(=O)COCCN(C)S(=O)(=O)c2ccc(Cl)cc2Cl)CC1", "note": "(centres unmarked) [Example 70, 2-(2-(2,4-dichloro-N-methylphenylsulfonamido)ethoxy)-N-((4-((dimethylamino)(3-fluorophenyl)methyl)cyclohexyl)methyl)acetamide]", "inhibition at 10 µM": 31}
{"molecule": "CN(C)C(c1ccccc1)C1CCC(NC(=O)COC2CCCCC2N(C)S(=O)(=O)c2ccc(Cl)c(Cl)c2)CC1", "note": "(centres unmarked) [Example 39, 2-(2-(3,4-dichloro-N-methylphenylsulfonamido)cyclohexyloxy)-N-(4-((dimethylamino)(phenyl)methyl)cyclohexyl)acetamide]", "inhibition at 10 µM": -8}
{"molecule": "COc1cc(C)c(S(=O)(=O)N2CCC(CCOCC(=O)NCCC3CCC(C(c4cccs4)N(C)C)CC3)CC2)c(C)c1C", "note": "(centres unmarked) [Example 75, N-(2-(4-((dimethylamino)(thiophen-2-yl)methyl)cyclohexyl)ethyl)-2-(2-(1-(4-methoxy-2,3,6-trimethylphenylsulfonyl)piperidin-4-yl)ethoxy)acetamide]", "inhibition at 10 µM": 15}
{"molecule": "COc1ccc(S(=O)(=O)N2CCCCC2COCC(=O)NCC2CCC(C(c3ccccc3)N(C)C)CC2)cc1", "note": "(centres unmarked) [Example 88, N-((4-((dimethylamino)(phenyl)methyl)cyclohexyl)methyl)-2-((1-(4-methoxyphenylsulfonyl)piperidin-2-yl)methoxy)acetamide]", "inhibition at 10 µM": 68}
{"molecule": "COc1ccc(S(=O)(=O)N2CCCCC2CCOCC(=O)NCC2CCC(C(c3cccs3)N(C)C)CC2)cc1", "note": "(centres unmarked) [Example 90, N-((4-((dimethylamino)(thiophen-2-yl)methyl)cyclohexyl)methyl)-2-(2-(1-(4-methoxyphenylsulfonyl)piperidin-2-yl)ethoxy)acetamide]", "inhibition at 10 µM": 37}
{"molecule": "Cc1ccc(S(=O)(=O)N(C)CCOCC(=O)NCCC2CCC(C(c3cccs3)N(C)C)CC2)cc1", "note": "(centres unmarked) [Example 82, N-(2-(4-((dimethylamino)(thiophen-2-yl)methyl)cyclohexyl)ethyl)-2-(2-(N,4-dimethylphenylsulfonamido)ethoxy)acetamide]", "inhibition at 10 µM": -1}
{"molecule": "CN(C)C(c1ccccc1)C1CCC(CNC(=O)COC2CCCCC2N(C)S(=O)(=O)c2ccc(Cl)c(Cl)c2)CC1", "note": "(centres unmarked) [Example 78, 2-(2-(3,4-dichloro-N-methylphenylsulfonamido)cyclohexyloxy)-N-((4-((dimethylamino)(phenyl)methyl)cyclohexyl)methyl)acetamide]", "inhibition at 10 µM": 2}
{"target": "T1, bradykinin 1 receptor (B1R) of the rat", "test": "Functional investigation on the rat bradykinin 1 receptor (B1R), Ca2+ FLIPR assay in CHO K1 rB1R cells", "type": "cell-based", "conditions": "CHO-K1, read-out: B1R Ant. r [10 μM] % Inhibition", "summary_of_the_method": "as §1", "units": {"inhibition at 10 µM": "%"}}
{"molecule": "CN(C)C(c1cccs1)C1CCC(CNC(=O)COCCN(C)S(=O)(=O)c2ccc(F)cc2)CC1", "note": "(centres unmarked) [Example 56, N-((4-((dimethylamino)(thiophen-2-yl)methyl)cyclohexyl)methyl)-2-(2-(4-fluoro-N-methylphenylsulfonamido)ethoxy)acetamide]", "inhibition at 10 µM": -4}
